{"source": "patent US20190234936A1", "about": "(priority 2016, published 2019)", "system": "human neutrophils", "assay_type": "cell-based", "data": [{"smiles": "CCCCCCCCCCCCCC(=O)O[C@@H]1[C@@H](C)[C@@]2(O)[C@@H](C=C(CO)C[C@]3(O)C(=O)C(C)=C[C@@H]23)[C@@H]2C(C)(C)[C@]12OC(C)=O", "note": "[PMA, phorbol 12-myristate 13-acetate]", "values": [{"measurement": "NET formation (DNA staining)", "result": "abundant lattices of extracellular NET-DNA filaments"}]}]}
